Results taken from paper PMC11285948, “The effects of CYP2B6 inactivators on the metabolism of ciprofol” (PLOS ONE, 2024).
Values joined by “and” are separate entries in the source; they are usually repeats but may differ in a detail not shown here. Identical values can stand only once.

Assays:
[1] = test system: rat liver microsomes (RLMs); test: Ciprofol metabolism in RLM incubation system (incubation time, protein concentration, enzyme kinetics); assay type: in vitro ADME; conditions: for reduction of ciprofol ΔC (Enzymatic reaction kinetics): ΔC1-ΔC3 and Mean; for ciprofol concentration in incubation system (Incubation time) / ciprofol concentration in incubation system (Liver microsomal protein concentration): C1-C3 and Mean; for ciprofol concentration in incubation system (Liver microsomal protein concentration): RLMs, ciprofol 25 μg·mL^-1, 40 min
Description: (§1) The volume of the incubation system was 200 μL and included 2 μL of substrate (ciprofol), 8 μL of rat liver microsomes (RLMs) or 6 μL of human liver microsomes (HLMs), 12 μL of NADPH generation system of solution (solution A 10 μL, solution B 2 μL), and the remaining volume was PBS. The incubation was performed in a water bath at a constant temperature of 37°C, and each sample was incubated three times in parallel.
(§2) The incubation system was removed from the water bath, and the reaction was terminated immediately by adding 800 μL of reaction termination solution (acetonitrile solution containing 5 μg·mL^-1 D6-ciprofol at 4°C). The mixture was vortexed for 2 min and centrifuged for 15 min, after which the supernatant was transferred to an autosampler vial for HPLC-MS/MS detection.
(§3) The concentrations of ciprofol and liver microsomal proteins in the RLM incubation system were set at 25 μg·mL^-1 and 0.8 mg·mL^-1, respectively, whereas those in the HLM incubation system were set at 40 μg·mL^-1 and 0.6 mg·mL^-1, respectively. Samples were obtained and assayed after 0, 10, 20, 30, 40, 60, 80, 100 and 120 min of incubation, and the optimum incubation time was determined according to the decreasing trend in ciprofol concentration.
(§4) The ciprofol concentrations in the RLM and HLM incubation systems were set at 25 and 40 μg·mL^-1, respectively. The liver microsomal protein concentrations were 0, 0.1, 0.2, 0.4, 0.6, 0.8 and 1.0 mg·mL^-1. The optimal protein concentration in the incubation system was determined based on the reduction of ciprofol (ΔC) after 40 min of incubation in RLMs and 60 min in HLMs.
(§5) The liver microsomal protein concentrations in the RLM incubation system and the HLM incubation system were 0.8 mg·mL^-1 and 0.6 mg·mL^-1, and the cells were incubated for 40 min and 60 min, respectively. The ciprofol concentrations in the incubation system were set at 4, 8, 16, 32, 48 and 80 μg·mL^-1, and the kinetic parameters of ciprofol metabolism were investigated based on ΔC values at different initial ciprofol concentrations (C0).
(§6) The substrate elimination method was employed in this study, and GraphPad Prism 8.0.2 software was used for statistical processing, including determination of the kinetic parameters of ciprofol metabolism and the IC50 values of psoralen and clopidogrel for ciprofol metabolism. The maximum velocity (Vmax), Michaelis constant (Km) and intrinsic clearance (CLint) were calculated using the […]: V=Vmax×[S]/Km+[S] CLint=Vmax/Km

[2] = test system: human liver microsomes (HLMs); test: Ciprofol metabolism in HLM incubation system (incubation time, protein concentration, enzyme kinetics); assay type: in vitro ADME; conditions: for reduction of ciprofol ΔC (Enzymatic reaction kinetics): ΔC1-ΔC3 and Mean
Description: as §1, §2, §3, §4, §5, §6

Structure (SMILES): CC(C)c1cccc([C@H](C)C2CC2)c1O [ciprofol]
- Km of ciprofol metabolism ([1]; RLMs 0.8 mg·mL^-1, 40 min): 25.11 µg/mL
- Vmax of ciprofol metabolism ([1]; RLMs 0.8 mg·mL^-1, 40 min): 14.06 ng·min^-1·mg protein^-1
- reduction of ciprofol ΔC (Enzymatic reaction kinetics) ([1]; RLMs 0.8 mg·mL^-1, 40 min, initial ciprofol C 4 μg/mL): 2.12 µg/mL and 1.71 µg/mL and 2.14 µg/mL and 1.99 µg/mL
- reduction of ciprofol ΔC (Enzymatic reaction kinetics) ([1]; RLMs 0.8 mg·mL^-1, 40 min, initial ciprofol C 8 μg/mL): 3.40 µg/mL and 3.72 µg/mL and 3.90 µg/mL and 3.68 µg/mL
- reduction of ciprofol ΔC (Enzymatic reaction kinetics) ([1]; RLMs 0.8 mg·mL^-1, 40 min, initial ciprofol C 16 μg/mL): 5.07 µg/mL and 6.04 µg/mL and 4.94 µg/mL and 5.35 µg/mL
- reduction of ciprofol ΔC (Enzymatic reaction kinetics) ([1]; RLMs 0.8 mg·mL^-1, 40 min, initial ciprofol C 32 μg/mL): 7.10 µg/mL and 8.64 µg/mL and 7.63 µg/mL and 7.79 µg/mL
- reduction of ciprofol ΔC (Enzymatic reaction kinetics) ([1]; RLMs 0.8 mg·mL^-1, 40 min, initial ciprofol C 48 μg/mL): 9.57 µg/mL and 8.62 µg/mL and 8.97 µg/mL and 9.05 µg/mL
- reduction of ciprofol ΔC (Enzymatic reaction kinetics) ([1]; RLMs 0.8 mg·mL^-1, 40 min, initial ciprofol C 80 μg/mL): 10.20 µg/mL and 11.72 µg/mL and 10.73 µg/mL and 10.88 µg/mL
- ciprofol concentration in incubation system (Incubation time) ([1]; RLMs 0.8 mg·mL^-1, ciprofol 25 μg·mL^-1, T 0 min): 25.04 µg/mL and 26.05 µg/mL and 27.04 µg/mL and 26.04 µg/mL
- ciprofol concentration in incubation system (Incubation time) ([1]; RLMs 0.8 mg·mL^-1, ciprofol 25 μg·mL^-1, T 10 min): 21.96 µg/mL and 25.48 µg/mL and 25.19 µg/mL and 24.21 µg/mL
- ciprofol concentration in incubation system (Incubation time) ([1]; RLMs 0.8 mg·mL^-1, ciprofol 25 μg·mL^-1, T 20 min): 20.63 µg/mL and 19.64 µg/mL and 23.74 µg/mL and 21.34 µg/mL
- ciprofol concentration in incubation system (Incubation time) ([1]; RLMs 0.8 mg·mL^-1, ciprofol 25 μg·mL^-1, T 30 min): 17.46 µg/mL and 18.48 µg/mL and 22.67 µg/mL and 19.53 µg/mL
- ciprofol concentration in incubation system (Incubation time) ([1]; RLMs 0.8 mg·mL^-1, ciprofol 25 μg·mL^-1, T 40 min): 16.32 µg/mL and 16.15 µg/mL and 19.54 µg/mL and 17.34 µg/mL
- ciprofol concentration in incubation system (Incubation time) ([1]; RLMs 0.8 mg·mL^-1, ciprofol 25 μg·mL^-1, T 60 min): 15.01 µg/mL and 16.57 µg/mL and 18.99 µg/mL and 16.86 µg/mL
- ciprofol concentration in incubation system (Incubation time) ([1]; RLMs 0.8 mg·mL^-1, ciprofol 25 μg·mL^-1, T 80 min): 13.80 µg/mL and 14.14 µg/mL and 18.20 µg/mL and 15.38 µg/mL
- ciprofol concentration in incubation system (Incubation time) ([1]; RLMs 0.8 mg·mL^-1, ciprofol 25 μg·mL^-1, T 100 min): 12.48 µg/mL and 12.69 µg/mL and 17.81 µg/mL and 14.32 µg/mL
- ciprofol concentration in incubation system (Incubation time) ([1]; RLMs 0.8 mg·mL^-1, ciprofol 25 μg·mL^-1, T 120 min): 11.61 µg/mL and 11.81 µg/mL and 16.86 µg/mL and 13.43 µg/mL
- ciprofol concentration in incubation system (Liver microsomal protein concentration) ([1]; Cprotein 0 mg/mL): 24.55 µg/mL and 25.68 µg/mL and 26.29 µg/mL and 25.50 µg/mL
- ciprofol concentration in incubation system (Liver microsomal protein concentration) ([1]; Cprotein 0.1 mg/mL): 23.43 µg/mL and 22.66 µg/mL and 24.40 µg/mL and 23.50 µg/mL
- ciprofol concentration in incubation system (Liver microsomal protein concentration) ([1]; Cprotein 0.2 mg/mL): 21.66 µg/mL and 22.34 µg/mL and 19.74 µg/mL and 21.25 µg/mL
- ciprofol concentration in incubation system (Liver microsomal protein concentration) ([1]; Cprotein 0.4 mg/mL): 19.22 µg/mL and 19.23 µg/mL and 17.57 µg/mL and 18.67 µg/mL
- ciprofol concentration in incubation system (Liver microsomal protein concentration) ([1]; Cprotein 0.6 mg/mL): 19.49 µg/mL and 17.16 µg/mL and 15.28 µg/mL and 17.31 µg/mL
- ciprofol concentration in incubation system (Liver microsomal protein concentration) ([1]; Cprotein 0.8 mg/mL): 18.46 µg/mL and 15.72 µg/mL and 14.74 µg/mL and 16.31 µg/mL
- ciprofol concentration in incubation system (Liver microsomal protein concentration) ([1]; Cprotein 1 mg/mL): 17.05 µg/mL and 19.78 µg/mL and 13.60 µg/mL and 16.81 µg/mL
- Km of ciprofol metabolism ([2]; HLMs 0.6 mg·mL^-1, 60 min): 40.07 µg/mL
- Vmax of ciprofol metabolism ([2]; HLMs 0.6 mg·mL^-1, 60 min): 42.39 ng·min^-1·mg protein^-1
- reduction of ciprofol ΔC (Enzymatic reaction kinetics) ([2]; HLMs 0.6 mg·mL^-1, 60 min, initial ciprofol C 4 μg/mL): 3.114 µg/mL and 3.093 µg/mL and 3.175 µg/mL and 3.13 µg/mL
- reduction of ciprofol ΔC (Enzymatic reaction kinetics) ([2]; HLMs 0.6 mg·mL^-1, 60 min, initial ciprofol C 8 μg/mL): 6.89 µg/mL and 6.98 µg/mL and 7.022 µg/mL and 6.96 µg/mL
- reduction of ciprofol ΔC (Enzymatic reaction kinetics) ([2]; HLMs 0.6 mg·mL^-1, 60 min, initial ciprofol C 16 μg/mL): 12.73 µg/mL and 12.88 µg/mL and 12.21 µg/mL and 12.61 µg/mL
- reduction of ciprofol ΔC (Enzymatic reaction kinetics) ([2]; HLMs 0.6 mg·mL^-1, 60 min, initial ciprofol C 32 μg/mL): 17.77 µg/mL and 19.4 µg/mL and 16.95 µg/mL and 18.04 µg/mL
- reduction of ciprofol ΔC (Enzymatic reaction kinetics) ([2]; HLMs 0.6 mg·mL^-1, 60 min, initial ciprofol C 48 μg/mL): 23.33 µg/mL and 25.1 µg/mL and 23.91 µg/mL and 24.11 µg/mL
- reduction of ciprofol ΔC (Enzymatic reaction kinetics) ([2]; HLMs 0.6 mg·mL^-1, 60 min, initial ciprofol C 80 μg/mL): 28.42 µg/mL and 27.74 µg/mL and 27.36 µg/mL and 27.84 µg/mL
- ciprofol concentration in incubation system (Incubation time) ([2]; HLMs 0.6 mg·mL^-1, ciprofol 40 μg·mL^-1, T 0 min, C1-C3 and Mean): 37.89 µg/mL and 38.98 µg/mL and 40.56 µg/mL and 39.14 µg/mL
- ciprofol concentration in incubation system (Incubation time) ([2]; HLMs 0.6 mg·mL^-1, ciprofol 40 μg·mL^-1, T 10 min, C1-C3 and Mean): 36.11 µg/mL and 34.79 µg/mL and 36.39 µg/mL and 35.76 µg/mL
- ciprofol concentration in incubation system (Incubation time) ([2]; HLMs 0.6 mg·mL^-1, ciprofol 40 μg·mL^-1, T 20 min, C1-C3 and Mean): 31.73 µg/mL and 29.56 µg/mL and 32.69 µg/mL and 31.33 µg/mL
- ciprofol concentration in incubation system (Incubation time) ([2]; HLMs 0.6 mg·mL^-1, ciprofol 40 μg·mL^-1, T 30 min, C1-C3 and Mean): 28.14 µg/mL and 24.88 µg/mL and 28.27 µg/mL and 27.10 µg/mL
- ciprofol concentration in incubation system (Incubation time) ([2]; HLMs 0.6 mg·mL^-1, ciprofol 40 μg·mL^-1, T 40 min, C1-C3 and Mean): 26.01 µg/mL and 21.75 µg/mL and 25.61 µg/mL and 24.46 µg/mL
- ciprofol concentration in incubation system (Incubation time) ([2]; HLMs 0.6 mg·mL^-1, ciprofol 40 μg·mL^-1, T 60 min, C1-C3 and Mean): 21.50 µg/mL and 18.33 µg/mL and 20.08 µg/mL and 19.97 µg/mL
- ciprofol concentration in incubation system (Incubation time) ([2]; HLMs 0.6 mg·mL^-1, ciprofol 40 μg·mL^-1, T 80 min, C1-C3 and Mean): 19.59 µg/mL and 17.50 µg/mL and 18.53 µg/mL and 18.54 µg/mL
- ciprofol concentration in incubation system (Incubation time) ([2]; HLMs 0.6 mg·mL^-1, ciprofol 40 μg·mL^-1, T 100 min, C1-C3 and Mean): 18.42 µg/mL and 15.96 µg/mL and 17.83 µg/mL and 17.40 µg/mL
- ciprofol concentration in incubation system (Incubation time) ([2]; HLMs 0.6 mg·mL^-1, ciprofol 40 μg·mL^-1, T 120 min, C1-C3 and Mean): 17.25 µg/mL and 14.82 µg/mL and 15.95 µg/mL and 16.01 µg/mL
- ciprofol concentration in incubation system (Liver microsomal protein concentration) ([2]; HLMs, ciprofol 40 μg·mL^-1, 60 min, Cprotein 0 mg/mL, C1-C3 and Mean): 39.87 µg/mL and 40.23 µg/mL and 38.51 µg/mL and 39.54 µg/mL
